In test [1] the target is T1, WT human PTHR-1 (Homo sapiens, UniProt Q03431).
T1 construct: bioactivity of the resulting compound in full-length hPTHR-1 and a truncated version; expressed in transfected cells
T1 sequence (Q03431 27-593): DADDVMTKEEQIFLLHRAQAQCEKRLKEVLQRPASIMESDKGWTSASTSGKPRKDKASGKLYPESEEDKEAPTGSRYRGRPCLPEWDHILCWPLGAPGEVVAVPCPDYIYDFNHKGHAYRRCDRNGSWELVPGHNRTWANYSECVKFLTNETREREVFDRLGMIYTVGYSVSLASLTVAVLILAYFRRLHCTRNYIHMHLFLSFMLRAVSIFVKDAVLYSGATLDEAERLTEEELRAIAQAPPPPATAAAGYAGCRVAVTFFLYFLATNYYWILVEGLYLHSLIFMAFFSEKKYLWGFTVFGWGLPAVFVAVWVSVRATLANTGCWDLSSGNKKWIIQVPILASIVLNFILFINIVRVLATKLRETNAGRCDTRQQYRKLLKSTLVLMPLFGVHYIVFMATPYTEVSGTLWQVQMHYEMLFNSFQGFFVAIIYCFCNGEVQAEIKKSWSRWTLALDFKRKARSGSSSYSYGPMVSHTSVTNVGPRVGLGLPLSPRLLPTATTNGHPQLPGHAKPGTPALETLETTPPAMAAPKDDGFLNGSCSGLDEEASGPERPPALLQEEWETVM
Nature of the test: cAMP GloSensor dose-response in GP-2.3 cells expressing human PTHR-1. The format is cell-based. The conditions noted are these: for cAMP (hPTHR-1) Max: Table 1, luminescence counts per second relative to PTH(1-34); for cAMP (hPTHR-1) Max / Max: 12-16 minutes after ligand addition; for Max: Table 6, GP-2.3 cells, mean ± SEM. How it is done: FIGS. 8A, 8B, and 8C constitute a series of graphs depicting cAMP responses in GP-2.3 cells expressing wild-type human parathyroid hormone receptor 1 (PTHR-1-WT). […] Data are means (±SEM) of n>4 experiments, each performed in duplicate.
(§1) For cAMP dose-response assays, monolayers of confluent HEK 293 cells were pre-incubated with buffer containing d-luciferin (0.5 mM) in 96 well plates at room temperature until a stable baseline level of luminescence was established (30 min). Varying concentrations of agonist were then added, and the time course of luminescence response was recorded using a Perkin Elmer plate reader following α/β-peptide addition.

The target of test [2] is T2, WT rat PTHR-1 (Rattus norvegicus, UniProt P25961).
T2 construct: expressed in transfected cells
T2 sequence (P25961 27-591): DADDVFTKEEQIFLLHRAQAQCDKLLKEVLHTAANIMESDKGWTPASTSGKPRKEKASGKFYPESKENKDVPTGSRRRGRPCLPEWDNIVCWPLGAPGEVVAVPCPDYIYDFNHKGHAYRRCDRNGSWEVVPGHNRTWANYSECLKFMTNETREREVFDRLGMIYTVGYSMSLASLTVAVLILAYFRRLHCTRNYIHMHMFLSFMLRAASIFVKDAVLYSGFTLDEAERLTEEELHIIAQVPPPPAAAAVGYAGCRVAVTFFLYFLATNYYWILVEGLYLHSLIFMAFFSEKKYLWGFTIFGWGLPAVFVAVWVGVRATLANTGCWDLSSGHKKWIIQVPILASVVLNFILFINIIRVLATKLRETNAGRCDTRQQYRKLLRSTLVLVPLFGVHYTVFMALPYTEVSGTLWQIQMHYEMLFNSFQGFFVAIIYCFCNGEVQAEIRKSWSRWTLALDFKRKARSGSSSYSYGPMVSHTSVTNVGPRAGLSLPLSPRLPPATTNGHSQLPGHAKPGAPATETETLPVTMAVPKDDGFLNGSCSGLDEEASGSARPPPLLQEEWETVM
Nature of the test: cAMP GloSensor dose-response in GR-35 cells expressing rat PTHR-1. The format is cell-based. The conditions noted are these: Table 7; GR-35 cells, 12-16 minutes after ligand addition; mean ± SEM. As to the method:
FIGS. 9A, 9B, and 9C constitute a series of graphs depicting cAMP responses in GR-35 cells expressing rat PTHR-1-WT. […] Data are means (±SEM) of n>4 experiments, each performed in duplicate.
as §1

Where two headings read alike, the source gives them in different places. Starred links: 1 amine or outer side, 2 acyl side, 3 side chain; linkers in the order of their positions; H or OH if unused. Non-standard residues stand in square brackets, D forms with d. Residues, ends and D or L forms follow the SMILES beside them. *: point of attachment. NH(1S,2S-2-CONH2-cPent) = NC(=O)[C@H]1CCC[C@@H]1N*; X12 = O=C([C@H]1CCC[C@@H]1N[*:1])[*:2]; X13 = O=C([C@H]1CNC[C@@H]1N[*:1])[*:2]; ACPC(1S,2S) = N[C@H]1CCC[C@@H]1C(=O)*; Aib = CC(C)(N)C(=O)O

As for `CC[C@H](C)[C@H](NC(=O)[C@H](CCC(=O)O)NC(=O)[C@H](CO)NC(=O)[C@@H](NC(=O)[C@@H](N)CO)C(C)C)C(=O)N[C@@H](CCC(N)=O)C(=O)N[C@@H](CC(C)C)C(=O)N[C@@H](CCSC)C(=O)N[C@@H](Cc1c[nH]cn1)C(=O)N[C@@H](CC(N)=O)C(=O)N[C@@H](CC(C)C)C(=O)NCC(=O)N[C@@H](CCCCN)C(=O)N[C@@H](Cc1c[nH]cn1)C(=O)N[C@@H](CC(C)C)C(=O)N[C@@H](CC(N)=O)C(=O)N[C@@H](CO)C(=O)N[C@@H](CCSC)C(=O)N[C@@H](CCC(=O)O)C(=O)N[C@@H](CCCNC(=N)N)C(=O)N[C@H](C(=O)N[C@@H](CCC(=O)O)C(=O)N[C@H](CC(=O)N[C@@H](CC(C)C)C(=O)N[C@@H](CCCNC(=N)N)C(=O)N[C@@H](CCCCN)C(=O)N[C@@H](CCCCN)CC(=O)N[C@@H](CC(C)C)C(=O)N[C@@H](CCC(N)=O)C(=O)N[C@@H](CC(=O)O)C(=O)N[C@H](CC(=O)N[C@@H](Cc1c[nH]cn1)C(=O)N[C@@H](CC(N)=O)C(=O)N[C@@H](Cc1ccccc1)C(N)=O)C(C)C)Cc1c[nH]c2ccccc12)C(C)C` [A3], in test [1], the “cAMP (hPTHR-1) Max” value was found to be 1.07 and the Max is on record as 232 ± 15 luminescence counts per second × 10^−3. The “agonist activity at hPTHR-1 (cAMP response), in words” value in test [1] (maximum cAMP response compared with PTH(1-34)) is listed as “full agonists of hPTHR-1”. Besides, the Max in test [2] is 74 ± 101 luminescence counts per second × 10−3.
With `CC[C@H](C)[C@H](NC(=O)[C@H](CCC(=O)O)NC(=O)[C@H](CO)NC(=O)[C@@H](NC(=O)[C@@H](N)CO)C(C)C)C(=O)N[C@@H](CCC(N)=O)C(=O)N[C@@H](CC(C)C)C(=O)N[C@@H](CCSC)C(=O)N[C@@H](Cc1c[nH]cn1)C(=O)N[C@@H](CC(N)=O)C(=O)N[C@@H](CC(C)C)C(=O)NCC(=O)N[C@@H](CCCCN)C(=O)N[C@@H](Cc1c[nH]cn1)C(=O)N[C@H](CC(=O)N[C@@H](CC(N)=O)C(=O)N[C@@H](CO)C(=O)N[C@@H](CCSC)C(=O)N[C@@H](CCC(=O)O)CC(=O)N[C@@H](CCCNC(=N)N)C(=O)N[C@H](C(=O)N[C@@H](CCC(=O)O)C(=O)N[C@H](CC(=O)N[C@@H](CC(C)C)C(=O)N[C@@H](CCCNC(=N)N)C(=O)N[C@@H](CCCCN)C(=O)N[C@@H](CCCCN)CC(=O)N[C@@H](CC(C)C)C(=O)N[C@@H](CCC(N)=O)C(=O)N[C@@H](CC(=O)O)C(=O)N[C@H](CC(=O)N[C@@H](Cc1c[nH]cn1)C(=O)N[C@@H](CC(N)=O)C(=O)N[C@@H](Cc1ccccc1)C(N)=O)C(C)C)Cc1c[nH]c2ccccc12)C(C)C)CC(C)C` [A5], in test [1], the EC50 (in general, the concentration needed to bring the measured effect to its halfway point) amounted to 1.66 nM; the “cAMP (hPTHR-1) Max” value worked out at 1.12; the Max was 244 ± 32 luminescence counts per second × 10^−3. The Max in test [2] is 54 ± 26 luminescence counts per second × 10−3.
Regarding `CC[C@H](C)[C@H](NC(=O)[C@H]1CCC[C@@H]1NC(=O)[C@H](CO)NC(=O)[C@@H](NC(=O)[C@@H](N)CO)C(C)C)C(=O)N[C@@H](CCC(N)=O)C(=O)N[C@@H](CC(C)C)C(=O)N[C@@H](CCSC)C(=O)N[C@@H](Cc1c[nH]cn1)C(=O)N[C@@H](CC(N)=O)C(=O)N[C@@H](CC(C)C)C(=O)NCC(=O)N[C@@H](CCCCN)C(=O)N[C@@H](Cc1c[nH]cn1)C(=O)N[C@@H](CC(C)C)C(=O)N[C@@H](CC(N)=O)C(=O)N[C@@H](CO)C(=O)N[C@@H](CCSC)C(=O)N[C@@H](CCC(=O)O)C(=O)N[C@@H](CCCNC(=N)N)C(=O)N[C@H](C(=O)N[C@@H](CCC(=O)O)C(=O)N[C@@H](Cc1c[nH]c2ccccc12)C(=O)N[C@@H](CC(C)C)C(=O)N[C@@H](CCCNC(=N)N)C(=O)N[C@@H](CCCCN)C(=O)N[C@@H](CCCCN)C(=O)N[C@@H](CC(C)C)C(=O)N[C@@H](CCC(N)=O)C(=O)N[C@@H](CC(=O)O)C(=O)N[C@H](C(=O)N[C@@H](Cc1c[nH]cn1)C(=O)N[C@@H](CC(N)=O)C(=O)N[C@@H](Cc1ccccc1)C(N)=O)C(C)C)C(C)C` [ACPC(4)] (H-SVS[X12]IQLMHNLGKHLNSMERVEWLRKKLQDVHNF-NH2; N-terminus assumed), in test [1] (Table 8, cAMP-inducing potency, N-terminal modifications), the “hPTHR1 EC50, nM (Means ± SEM)” value is on record as “No activity”.
Turning to `CC[C@H](C)[C@H](NC(=O)[C@H](CO)NC(=O)[C@H](CCCCN)NC(=O)CNC(=O)[C@H](CCCCN)NC(=O)[C@H](CC(=O)O)NC(=O)[C@H](Cc1c[nH]cn1)NC(=O)[C@H](CC(C)C)NC(=O)[C@H]1CCC[C@@H]1NC(=O)[C@H](CCC(N)=O)NC(=O)[C@H]1CCC[C@@H]1NC(=O)[C@H](CCC(=O)O)NC(=O)[C@H](CO)NC(=O)[C@@H](NC(=O)[C@H]1CCC[C@@H]1N)C(C)C)C(=O)N[C@@H](CCC(N)=O)C(=O)N[C@@H](CC(=O)O)C(=O)N[C@@H](CC(C)C)C(=O)N[C@@H](CCCNC(=N)N)C(=O)N[C@@H](CCCNC(=N)N)C(=O)N[C@@H](CCCNC(=N)N)C(=O)N[C@@H](CCC(=O)O)C(=O)N[C@@H](CC(C)C)C(=O)N[C@@H](CC(C)C)C(=O)N[C@@H](CCC(=O)O)C(=O)N[C@@H](CCCCN)C(=O)N[C@@H](CC(C)C)C(=O)N[C@@H](CC(C)C)C(=O)NC(C)(C)C(=O)N[C@@H](CCCCN)C(=O)N[C@@H](CC(C)C)C(=O)N[C@@H](Cc1c[nH]cn1)C(=O)N[C@H](C(=O)N[C@@H](C)C(N)=O)[C@@H](C)O` [BA058 ACPC(1,5,7), XVSEXQXLHDKGKSIQDLRRRELLEKLLUKLHTA-NH2] ({ACPC(1S,2S)}-VSE[X12]Q[X12]LHDKGKSIQDLRRRELLEKLL[Aib]KLHTA-NH2; N-terminus assumed), in test [1] (read-out: cAMP EC50), the EC50 worked out at 0.26 nM.
The same measure, in the same setting: with `CC[C@H](C)[C@H](NC(=O)[C@H]1CCC[C@@H]1NC(=O)[C@H](CCCCN)NC(=O)CNC(=O)[C@H](CCCCN)NC(=O)[C@H](CC(=O)O)NC(=O)[C@H](Cc1cnc[nH]1)NC(=O)[C@H](CC(C)C)NC(=O)[C@H]1CCC[C@@H]1NC(=O)[C@H](CCC(N)=O)NC(=O)[C@H]1CCC[C@@H]1NC(=O)[C@H](CCC(=O)O)NC(=O)[C@H](CO)NC(=O)[C@@H](NC(=O)[C@H]1CCC[C@@H]1N)C(C)C)C(=O)N[C@@H](CCC(N)=O)C(=O)N[C@@H](CC(=O)O)C(=O)N[C@H]1CCC[C@@H]1C(=O)N[C@@H](CCCNC(=N)N)C(=O)N[C@@H](CCCNC(=N)N)C(=O)N[C@@H](CCCNC(=N)N)C(=O)N[C@H]1CNC[C@@H]1C(=O)N[C@@H](CC(C)C)C(=O)N[C@@H](CC(C)C)C(=O)N[C@@H](CCC(=O)O)C(=O)N[C@H]1CNC[C@@H]1C(=O)N[C@@H](CC(C)C)C(=O)N[C@@H](CC(C)C)C(=O)NC(C)(C)C(=O)N[C@H]1CCC[C@@H]1C(=O)N[C@@H](CC(C)C)C(=O)N[C@@H](Cc1cnc[nH]1)C(=O)N[C@H](C(=O)N[C@H]1CCC[C@@H]1C(N)=O)[C@@H](C)O` [CycD6 BA058 ACPC(1,5,7), XVSEXQXLHDKGKXIQDXRRRZLLEZLLUXLHTX-NH2] ({ACPC(1S,2S)}-VSE[X12]Q[X12]LHDKGK[X12]IQD[X12]RRR[X13]LLE[X13]LL[Aib][X12]LHT-{NH(1S,2S-2-CONH2-cPent)}) the figure was 0.65 nM.
